From US20210045385A1, “PYRIDAZINONE-SUBSTITUTED KETOXIMES AS HERBICIDES” (FMC Corporation, priority 2018, published 2021)

Columns and labels:
Format in all cases: in vivo
[1] = system: Italian ryegrass (Lolium mutiflorum); assay: Test C preemergence, visual plant response rating
How it was run: (§1)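 Seeds sown in a loam–sand blend got a directed preemergence soil spray; postemergence plants (2–10 cm, one- to two-leaf stage) were sprayed with compound in a non-phytotoxic solvent plus surfactant. Injury was scored visually against untreated controls after about 10 d in a greenhouse on a 0–100 scale (100 = complete control).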

[2] = system: barnyardgrass (Echinochloa crus-galli); assay: Test C preemergence, visual plant response rating
How it was run: as §1

[3] = system: foxtail, giant (giant foxtail, Setaria faberi); assay: Test C preemergence, visual plant response rating
How it was run: as §1

kochia (Bassia scoparia) [4] = assay: Test C preemergence, visual plant response rating
How it was run: as §1

[5] = system: pigweed (Amaranthus retroflexus); assay: Test C preemergence, visual plant response rating
How it was run: as §1

[6] = system: ragweed (common ragweed, Ambrosia artemisiifolia); assay: Test C preemergence, visual plant response rating
How it was run: as §1

[7] = system: Italian ryegrass (Lolium mutiflorum); assay: Test C postemergence, visual plant response rating
How it was run: as §1

[8] = system: barnyardgrass (Echinochloa crus-galli); assay: Test C postemergence, visual plant response rating
How it was run: as §1

[9] = system: blackgrass (Alopecurus myosuroides); assay: Test C postemergence, visual plant response rating
How it was run: as §1

corn (Zea mays) = assay: Test C postemergence, visual plant response rating
How it was run: as §1

[10] = system: foxtail, giant (giant foxtail, Setaria faberi); assay: Test C postemergence, visual plant response rating
How it was run: as §1

[11] = system: galium (catchweed bedstraw, Galium aparine); assay: Test C postemergence, visual plant response rating
How it was run: as §1

kochia (Bassia scoparia) [12] = assay: Test C postemergence, visual plant response rating
How it was run: as §1

[13] = system: pigweed (Amaranthus retroflexus); assay: Test C postemergence, visual plant response rating
How it was run: as §1

[14] = system: ragweed (common ragweed, Ambrosia artemisiifolia); assay: Test C postemergence, visual plant response rating
How it was run: as §1

[15] = system: wheat (Triticum aestivum); assay: Test C postemergence, visual plant response rating
How it was run: as §1

[16] = system: barnyardgrass (Echinochloa crus-galli); assay: Test D flooded paddy test, visual plant response rating; details: 250 g ai/ha, scale 0 to 100 (0 no effect, 100 complete control), 13 to 15 d
How it was run: (§2)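 Greenhouse paddy assay scored on a 0–100 visual scale after 13 to 15 d, where 100 means complete control and a dash marks no result; dosing was into 3 cm floodwater over 2-leaf plants.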

[17] = system: duck salad (Heteranthera limosa); assay: as above; details: 250 g ai/ha, scale 0 to 100 (0 no effect, 100 complete control), 13 to 15 d
How it was run: as §2

rice (Oryza sativa) = assay: as above; details: 250 g ai/ha, scale 0 to 100 (0 no effect, 100 complete control), 13 to 15 d
How it was run: as §2

[18] = system: sedge umbrella (small-flower umbrella sedge, Cyperus difformis); assay: as above; details: 250 g ai/ha, scale 0 to 100 (0 no effect, 100 complete control), 13 to 15 d
How it was run: as §2

[19] = Test C, 31 g ai/ha, 0 is no effect, 100 is complete control
[20] = Test C, postemergence, 125 g ai/ha

Structure (SMILES) | Ryegrass, Italian plant response rating (0 to 100 scale) ([1]; 125 g ai/ha) | Ryegrass, Italian plant response rating (0 to 100 scale) [1, 19] | Barnyardgrass plant response rating (0 to 100 scale) ([2]; 125 g ai/ha) | Barnyardgrass plant response rating (0 to 100 scale) [2, 19] | Foxtail, Giant plant response rating (0 to 100 scale) ([3]; 125 g ai/ha) | Foxtail, Giant plant response rating (0 to 100 scale) [3, 19] | Kochia plant response rating (0 to 100 scale) (kochia (Bassia scoparia) [4]; 125 g ai/ha) | Kochia plant response rating (0 to 100 scale) (kochia (Bassia scoparia) [4]; [19]) | Pigweed plant response rating (0 to 100 scale) ([5]; 125 g ai/ha) | Pigweed plant response rating (0 to 100 scale) [5, 19] | Ragweed plant response rating (0 to 100 scale) ([6]; 125 g ai/ha) | Ragweed plant response rating (0 to 100 scale) [6, 19] | Ryegrass, Italian plant response rating (0 to 100 scale) ([7]; Postemergence, 31 g ai/ha) | Ryegrass, Italian plant response rating (0 to 100 scale) [7, 20] | Barnyardgrass plant response rating (0 to 100 scale) ([8]; Postemergence, 31 g ai/ha) | Barnyardgrass plant response rating (0 to 100 scale) [8, 20] | Blackgrass plant response rating (0 to 100 scale) ([9]; Postemergence, 31 g ai/ha) | Blackgrass plant response rating (0 to 100 scale) [9, 20] | Corn plant response rating (0 to 100 scale) (corn (Zea mays); Postemergence, 31 g ai/ha) | Corn plant response rating (0 to 100 scale) (corn (Zea mays); [20]) | other results
C#CCO/N=C(\c1ccc(F)c(Br)c1)c1c(O)c(C)nn(C)c1=O [Compound 164] | 30 | 0 | 50 | 0 | 50 | 10 | 50 | 0 | 90 | 70 | 30 | 0 | 0 | 70 | 30 | 60 | 30 | 50 | 10 | 30 | Foxtail, Giant plant response rating (0 to 100 scale) ([10]; Postemergence, 31 g ai/ha): 10; Foxtail, Giant plant response rating (0 to 100 scale) [10, 20]: 70; Galium plant response rating (0 to 100 scale) ([11]; Postemergence, 31 g ai/ha): 60; Galium plant response rating (0 to 100 scale) [11, 20]: 70; Kochia plant response rating (0 to 100 scale) (kochia (Bassia scoparia) [12]; Postemergence, 31 g ai/ha): 30; Kochia plant response rating (0 to 100 scale) (kochia (Bassia scoparia) [12]; [20]): 70; Pigweed plant response rating (0 to 100 scale) ([13]; Postemergence, 31 g ai/ha): 50; Pigweed plant response rating (0 to 100 scale) [13, 20]: 70; Ragweed plant response rating (0 to 100 scale) ([14]; Postemergence, 31 g ai/ha): 20; Ragweed plant response rating (0 to 100 scale) [14, 20]: 50; Wheat plant response rating (0 to 100 scale) ([15]; Postemergence, 31 g ai/ha): 20; Wheat plant response rating (0 to 100 scale) [15, 20]: 80; Plant response rating, Barnyardgrass (Flood) [16]: 0; Plant response rating, Ducksalad (Flood) [17]: 0; Plant response rating, Rice (Flood) (rice (Oryza sativa)): 0; Plant response rating, Sedge, Umbrella (Flood) [18]: 0
CO/N=C(/c1cc(Cl)cc(OC)c1)c1c(O)c(C)nn(C)c1=O [Compound 165] | 100 | 80 | 80 | 60 | 70 | 60 | 100 | 80 | 20 | 0 | 90 | 50 | 70 | 100 | 40 | 80 | 20 | 40 | 0 | 20 | Foxtail, Giant plant response rating (0 to 100 scale) ([10]; Postemergence, 31 g ai/ha): 20; Foxtail, Giant plant response rating (0 to 100 scale) [10, 20]: 70; Galium plant response rating (0 to 100 scale) ([11]; Postemergence, 31 g ai/ha): 100; Galium plant response rating (0 to 100 scale) [11, 20]: 100; Kochia plant response rating (0 to 100 scale) (kochia (Bassia scoparia) [12]; Postemergence, 31 g ai/ha): 90; Kochia plant response rating (0 to 100 scale) (kochia (Bassia scoparia) [12]; [20]): 90; Pigweed plant response rating (0 to 100 scale) ([13]; Postemergence, 31 g ai/ha): 40; Pigweed plant response rating (0 to 100 scale) [13, 20]: 70; Ragweed plant response rating (0 to 100 scale) ([14]; Postemergence, 31 g ai/ha): 80; Ragweed plant response rating (0 to 100 scale) [14, 20]: 100; Wheat plant response rating (0 to 100 scale) ([15]; Postemergence, 31 g ai/ha): 0; Wheat plant response rating (0 to 100 scale) [15, 20]: 30; Plant response rating, Barnyardgrass (Flood) [16]: 0; Plant response rating, Ducksalad (Flood) [17]: 0; Plant response rating, Rice (Flood) (rice (Oryza sativa)): 0; Plant response rating, Sedge, Umbrella (Flood) [18]: 0
C#CCO/N=C(\c1ccc(Cl)c(Cl)c1)c1c(O)c(C)nn(C)c1=O [Compound 166] | 60 | 10 | 50 | 0 | 60 | 0 | 80 | 0 | 50 | 0 | 10 | 0 | 0 | 80 | 20 | 30 | 0 | 20 | 0 | 20 | Foxtail, Giant plant response rating (0 to 100 scale) ([10]; Postemergence, 31 g ai/ha): 10; Foxtail, Giant plant response rating (0 to 100 scale) [10, 20]: 30; Galium plant response rating (0 to 100 scale) ([11]; Postemergence, 31 g ai/ha): 50; Galium plant response rating (0 to 100 scale) [11, 20]: 80; Kochia plant response rating (0 to 100 scale) (kochia (Bassia scoparia) [12]; Postemergence, 31 g ai/ha): 30; Kochia plant response rating (0 to 100 scale) (kochia (Bassia scoparia) [12]; [20]): 40; Pigweed plant response rating (0 to 100 scale) ([13]; Postemergence, 31 g ai/ha): 30; Pigweed plant response rating (0 to 100 scale) [13, 20]: 50; Ragweed plant response rating (0 to 100 scale) ([14]; Postemergence, 31 g ai/ha): 20; Ragweed plant response rating (0 to 100 scale) [14, 20]: 30; Wheat plant response rating (0 to 100 scale) ([15]; Postemergence, 31 g ai/ha): 0; Wheat plant response rating (0 to 100 scale) [15, 20]: 60; Plant response rating, Barnyardgrass (Flood) [16]: 0; Plant response rating, Ducksalad (Flood) [17]: 0; Plant response rating, Rice (Flood) (rice (Oryza sativa)): 0; Plant response rating, Sedge, Umbrella (Flood) [18]: 0
Cc1nn(C)c(=O)c(C(=NOC(C)C)c2cc(Cl)cc(Cl)c2F)c1O [Compound 167] | 100 | 100 | 100 | 100 | 100 | 100 | 100 | 70 | 100 | 100 | 100 | 80 | 100 | 100 | 80 | 90 | 80 | 90 | 30 | 70 | Foxtail, Giant plant response rating (0 to 100 scale) ([10]; Postemergence, 31 g ai/ha): 90; Foxtail, Giant plant response rating (0 to 100 scale) [10, 20]: 90; Galium plant response rating (0 to 100 scale) ([11]; Postemergence, 31 g ai/ha): 80; Galium plant response rating (0 to 100 scale) [11, 20]: 100; Kochia plant response rating (0 to 100 scale) (kochia (Bassia scoparia) [12]; Postemergence, 31 g ai/ha): 80; Kochia plant response rating (0 to 100 scale) (kochia (Bassia scoparia) [12]; [20]): 100; Pigweed plant response rating (0 to 100 scale) ([13]; Postemergence, 31 g ai/ha): 100; Pigweed plant response rating (0 to 100 scale) [13, 20]: 100; Ragweed plant response rating (0 to 100 scale) ([14]; Postemergence, 31 g ai/ha): 100; Ragweed plant response rating (0 to 100 scale) [14, 20]: 100; Wheat plant response rating (0 to 100 scale) ([15]; Postemergence, 31 g ai/ha): 70; Wheat plant response rating (0 to 100 scale) [15, 20]: 100; Plant response rating, Barnyardgrass (Flood) [16]: 95; Plant response rating, Ducksalad (Flood) [17]: 70; Plant response rating, Rice (Flood) (rice (Oryza sativa)): 65; Plant response rating, Sedge, Umbrella (Flood) [18]: 95
